Eleven compounds from article PMC8126888 (RSC Medicinal Chemistry, 2020) can be followed below.

Like-named read-outs stand apart in the source and are kept apart here.

In series [1] the test system is primary peritoneal mouse macrophages (PMM). Briefly: cells. To be noted: Macrophage.
Series [2] is described as follows: in vitro. To be noted: human, microsomes.
The nature of series [3]: physchem.
The nature of series [4]: in vitro. To be noted: mouse, microsomes.
Series [5] relates to Leishmania infantum MHOM/MA(BE)/67/ITMAP263 intracellular amastigotes. Put plainly: microbe, parasite or virus in culture. To be noted: Macrophage, in Mus musculus.
For series [6] the test system is unchanged. To be noted: intracellular amastigotes in PMM; geometric mean of a minimum of two experiments ± standard error.
Series [7] can be described thus: in vitro. To be noted: human.
For series [8], the system named is Trypanosoma cruzi, Tulahuen CL2, beta-galactosidase strain. Briefly: microbe, parasite or virus in culture. To be noted: MRC5, read-out: T. cruzi Tulahuen C4 (LacZ) IC50.
The mark [9] stands for this setting: read-out: PMM pIC50 (converted).
The mark [10] stands for this setting: pH 7.4, Microsome Clint,u Human, Table 2, intrinsic in vitro clearance, liver microsomes.
Where [11] appears, read: HPLC, Ascentis Express RP Amide column, pH 7.4, elog D, HPLC measured log D, pH 7.4.
Setting [12] is: pH 7.4, Microsome Clint,u Mouse, Table 2, intrinsic in vitro clearance, liver microsomes.
Where [13] appears, read: read-out: L. inf. pIC50, intracellular amastigotes in PMM (converted), geometric mean of a minimum of two experiments ± standard error.
Where [14] appears, read: pH 7.4, HLM CLint, human liver microsomes.
[15] abbreviates: HPLC, Ascentis Express RP Amide column, pH 7.4, eLogD, experimental.
[16] abbreviates: pH 7.4, MLM CLint, mouse liver microsomes.
[17] abbreviates: read-out: L. Inf. pIC50, from L. infantum intracellular amastigote IC50 (converted).
Setting [18] is: read-out: L. infantum MHOM/MA(BE)/67/ITMAP263 intracellular amastigotes IC50, intracellular amastigotes.

For orientation: microsomal CLint means a measure of how fast metabolising enzymes remove a compound, apart from limits set by blood flow. The low end stands for greater metabolic stability, the high end for faster metabolism. In general, chromatographic logD refers to lipophilicity estimated from chromatographic retention. The low end stands for a more hydrophilic compound, the high end for a more lipophilic compound. As to `COc1ccc(OC)c(S(=O)(=O)N(Cc2ccc(F)cc2)Cc2cnc(OC)nc2OC)c1` [Compound 34], the IC50 in series [1] (setting [9]) was greater than 64.6 µM; in series [5] (setting [13]) it was 53.7 µM. The intrinsic clearance (microsomal CLint) at 0.5 h, 0.5 µM turned out to be 498 µL/min/mg in series [2] (setting [10]) and 3150 µL/min/mg in series [4] (setting [12]). For the same compound, in series [3] (setting [11]), the chromatographic logD turned out to be 3.8.
As for `COc1ccc(OC)c(S(=O)(=O)N(Cc2ccc(F)cc2)Cc2ccnn2C)c1` [Compound 35], the IC50 in series [1] (setting [9]) is 45.7 µM; in series [5] (setting [13]), 5.25 µM. The compound further gave a microsomal CLint at 0.5 h, 0.5 µM in series [2] (setting [10]) of 651 µL/min/mg. Further, the chromatographic logD in series [3] (setting [11]) is 3.5. The compound further came in with a microsomal CLint at 0.5 μM in series [4] (setting [12]) of 5480 µL/min/mg.
Take `COc1ccc(OC)c(S(=O)(=O)N(Cc2ccc(F)cc2)Cc2nc(C)no2)c1` [Compound 36]: the IC50 was greater than 64.6 µM in series [1] (setting [9]) and 7.76 µM in series [5] (setting [13]). In series [2] (setting [10]), this compound gave a microsomal CLint at 0.5 μM of 350 µL/min/mg. Moreover, the chromatographic logD in series [3] (setting [11]) turned out to be 3.5. The microsomal CLint at 0.5 h, 0.5 µM in series [4] (setting [12]) turned out to be 3050 µL/min/mg.
`CCN(Cc1ccccc1)S(=O)(=O)c1cc(OC)ccc1OC` [Compound 38]: in series [6], the “L. inf. pIC50” value was 5.60 ± 0.03. Moreover, the IC50 in series [1] (setting [9]) was greater than 64.6 µM; in series [5] (setting [13]), 2.09 µM. Further, the microsomal CLint at 0.5 μM in series [2] (setting [10]) was 534 µL/min/mg; in series [4] (setting [12]), 3500 µL/min/mg. The chromatographic logD in series [3] (setting [11]) was determined as 3.8; in series [3] (pH 7.4, elog D, HPLC measured log D, pH 7.4) it was 3.5.
Take `COCCN(Cc1ccc(F)cc1)S(=O)(=O)c1ccccc1OC(F)(F)F` [Compound 40]: the IC50 in series [1] (setting [9]) is greater than 64.6 µM; in series [5] (setting [13]), 8.32 µM. The microsomal CLint at 0.5 h, 0.5 µM in series [2] (setting [10]) was 194 µL/min/mg; in series [4] (setting [12]), 222 µL/min/mg. In series [3] (setting [11]), the chromatographic logD is 3.8.
For `COCCN(Cc1ccc(F)cc1)S(=O)(=O)c1cc(C#N)ccc1OC` [Compound 41], the IC50 in series [1] (setting [9]) was greater than 64.6 µM; in series [5] (setting [13]), 8.91 µM. The microsomal CLint at 0.5 μM in series [2] (setting [10]) was less than 23 µL/min/mg. In series [3] (setting [11]), this compound gave a chromatographic logD of 3.4. The intrinsic metabolic clearance (microsomal CLint) at 0.5 h, 0.5 µM in series [4] (setting [12]) is 585 µL/min/mg.
In the case of `COCCN(Cc1ccc(F)cc1)S(=O)(=O)c1cc(C(=O)N2CCOCC2)ccc1OC` [Compound 42], the IC50 is greater than 64.6 µM in series [1] (setting [9]) and 43.7 ± 0.601 µM in series [5] (setting [13]). The microsomal CLint at 0.5 μM in series [2] (setting [10]) was 28 µL/min/mg; in series [4] (setting [12]) it was 60 µL/min/mg. For the same compound, the chromatographic logD in series [3] (setting [11]) came out at 2.9.
For the compound `COc1ccc(C(=O)N2CCOCC2)cc1S(=O)(=O)N(Cc1ccc(F)cc1)CC(C)C` [Compound 44], the IC50 in series [1] (setting [9]) was greater than 64.6 µM; in series [5] (setting [13]), 6.92 µM. Also, the intrinsic metabolic clearance (microsomal CLint) at 0.5 h, 0.5 µM in series [2] (setting [10]) was found to be 1050 µL/min/mg; in series [4] (setting [12]) it was 1400 µL/min/mg. Also, the chromatographic logD in series [3] (setting [11]) came to 3.6.
On to `COc1ccc(OC)c(S(=O)(=O)N(Cc2ccccc2)C2CCCNC2)c1` (stereo not drawn) [DNDI0003366131], for which the IC50 was greater than 64 µM in series [1] (read-out: PMM IC50), 29.5 µM in series [5] (setting [17]), 29.5 µM in series [5] (setting [18]) and 31.6 µM in series [8]. The intrinsic clearance (microsomal CLint) at 0.5 μM came out at 347 µL/min/mg in series [2] (setting [14]) and 96 µL/min/mg in series [4] (setting [16]). The same compound came in with a chromatographic logD in series [3] (setting [15]) of 3.2. The compound further gave a CC50 at 3 days in series [7] of 58.5 µM.
Regarding `COc1ncc(Br)cc1S(=O)(=O)N(Cc1ccc(F)cc1)Cc1ccc(F)cc1` [DNDI0003369122], the IC50 in series [1] (read-out: PMM IC50) was greater than 64 µM; in series [5] (setting [17]), 14.8 µM; in series [5] (setting [18]), 14.8 µM; in series [8], 7.43 µM. For the same compound, the results for the microsomal CLint at 0.5 μM in series [2] (setting [14]) and in series [4] (setting [16]) were 95 µL/min/mg and 469 µL/min/mg, respectively. The same compound yielded a chromatographic logD in series [3] (setting [15]) of 5.2. Further, in series [7], the CC50 at 3 days is greater than 64 µM.
As for `O=S1(=O)c2cc(F)ccc2OC(c2ccc(F)cc2)CN1Cc1ccccc1` (stereo not drawn) [DNDI0003371160], the IC50 in series [1] (read-out: PMM IC50) was greater than 64 µM; in series [5] (setting [17]), 20.4 µM; in series [5] (setting [18]), 20.2 µM; in series [8], 7.97 µM. In addition, the microsomal CLint at 0.5 μM is 398 µL/min/mg in series [2] (setting [14]) and 323 µL/min/mg in series [4] (setting [16]). Besides, in series [3] (setting [15]), the chromatographic logD was found to be 4.9. In addition, the CC50 at 3 days in series [7] was greater than 64 µM.
